The assay has as its system Rh18 complex spheroid viability, percent test/control. Description: Anticancer human tumor Rh18 cell line growth inhibition [Asc].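 For all read-outs here: spheroids exposed to compound for 7 days.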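 For viability, T/C: 100% = DMSO vehicle control wells.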 The note with it: for viability, T/C: stronger effect = lower value. The procedure, abridged:
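Complex spheroids combining tumor cells with HUVEC endothelial cells and human MSCs, at 37 degrees C, 5% CO2; agents tested alone or combined, half-log dilutions from at or near clinical Cmax, or 10 microM if Cmax unknown.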

Values joined by “and” are separate entries in the source; they are usually repeats but may differ in a detail not shown here. Equal values may be shown once.

For `O=C(c1ccc(F)c(F)c1Nc1ccc(I)cc1F)N1CC(O)([C@@H]2CCCCN2)C1` + CNC(C)C(=O)NC1CN(S(=O)(=O)c2cccc(S(=O)(=O)N3CCC4CCC(C(=O)NC(c5ccccc5)c5ccccc5)N4C(=O)C(NC(=O)C(C)NC)C3)c2)CCC2CCC(C(=O)NC(c3ccccc3)c3ccccc3)N2C1=O, the IC50 (curve of first compound, second compound 0.01 µM) was determined as 0.0618 µM; the IC50 (curve of first compound, second compound 0.0316 µM) turned out to be 0.00316 µM; the IC50 (curve of first compound, second compound 0.1 µM) was below 0.00316 µM; the IC50 (curve of first compound, second compound 0.316 µM) was below 0.00316 µM; the IC50 (curve of first compound, second compound 1 µM) was below 0.00316 µM. Besides, the viability, T/C is 53.6% (second compound 0.01 µM, first compound 0.00316 µM); 59.4% (second compound 0.01 µM, first compound 0.01 µM); 48.5% (second compound 0.01 µM, first compound 0.0316 µM); 45.2% (second compound 0.01 µM, first compound 0.1 µM); 41.8% (second compound 0.01 µM, first compound 0.316 µM); 14.8% (second compound 0.01 µM, first compound 1 µM). For the same compound, the viability, T/C is 50.4% (second compound 0.0316 µM, first compound 0.00316 µM); 46.1% (second compound 0.0316 µM, first compound 0.01 µM); 43.6% (second compound 0.0316 µM, first compound 0.0316 µM); 47.7% (second compound 0.0316 µM, first compound 0.1 µM); 52.1% (second compound 0.0316 µM, first compound 0.316 µM); 20.4% (second compound 0.0316 µM, first compound 1 µM). Moreover, the viability, T/C (second compound 0.1 µM, first compound 0.00316 µM) is 39.7%; the viability, T/C (second compound 0.1 µM, first compound 0.01 µM) is 40.8%; the viability, T/C (second compound 0.1 µM, first compound 0.0316 µM) was 36.1%; the viability, T/C (second compound 0.1 µM, first compound 0.1 µM) is 43.4%; the viability, T/C (second compound 0.1 µM, first compound 0.316 µM) is 37.9%; the viability, T/C (second compound 0.1 µM, first compound 1 µM) is 8.57%. For the same compound, the viability, T/C reads like this: (second compound 0.316 µM, first compound 0.00316 µM) 43.8%; (second compound 0.316 µM, first compound 0.01 µM) 47%; (second compound 0.316 µM, first compound 0.0316 µM) 38.2%; (second compound 0.316 µM, first compound 0.1 µM) 42.3%; (second compound 0.316 µM, first compound 0.316 µM) 41.6%; (second compound 0.316 µM, first compound 1 µM) 13.5%. Besides, the viability, T/C was 41.5% (second compound 1 µM, first compound 0.00316 µM); 37.6% (second compound 1 µM, first compound 0.01 µM); 37.3% (second compound 1 µM, first compound 0.0316 µM); 42.9% (second compound 1 µM, first compound 0.1 µM); 28.9% (second compound 1 µM, first compound 0.316 µM); 11.6% (second compound 1 µM, first compound 1 µM).

Turning to `NC(=O)C(=Cn1cnc(-c2cc(C(F)(F)F)cc(C(F)(F)F)c2)n1)c1cncnc1`, the viability, T/C reads like this: (compound 0.000949 µM) 85.9% and 82.9% and 85.5%; (compound 0.003 µM) 93.2% and 85.7% and 79.2%; (compound 0.00949 µM) 92.8% and 63.3% and 67.5%; (compound 0.03 µM) 53.9% and 57.6% and 61%; (compound 0.0949 µM) 40.6% and 46.8% and 52.6%; (compound 0.3 µM) 32.3% and 31.4% and 34.7%. In addition, for the setting “curve of compound”, the IC50 is 0.0388 µM and 0.0583 µM and 0.0887 µM.

Broadly, the IC50 is the point on the concentration scale where inhibition reaches its midpoint. For orientation: viability, T/C means the result in the treated group divided by that in the control group, in per cent.

Source of the values: PubChem BioAssay AID1963431 (Molecular Pharmacology Branch, DTP, NCI, 2024).
